The experiment deals with T1, human Glucose-dependent Insulinotropic Polypeptide Receptor (hGIPR) (Homo sapiens, UniProt P48546).
T1 sequence (P48546 22-466): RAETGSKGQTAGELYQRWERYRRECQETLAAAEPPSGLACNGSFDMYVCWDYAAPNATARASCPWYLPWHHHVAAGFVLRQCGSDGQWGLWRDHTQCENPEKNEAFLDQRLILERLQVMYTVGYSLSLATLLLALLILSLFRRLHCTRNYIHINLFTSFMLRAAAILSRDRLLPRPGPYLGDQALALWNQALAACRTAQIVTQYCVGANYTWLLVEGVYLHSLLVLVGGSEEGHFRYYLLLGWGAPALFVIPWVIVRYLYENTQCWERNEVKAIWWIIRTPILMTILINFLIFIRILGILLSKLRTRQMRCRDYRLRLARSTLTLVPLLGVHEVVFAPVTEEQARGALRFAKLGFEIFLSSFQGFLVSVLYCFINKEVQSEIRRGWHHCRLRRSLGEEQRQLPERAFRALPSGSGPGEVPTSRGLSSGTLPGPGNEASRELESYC
The experiment can be described thus: Functional in vitro GIPR antagonist potency assay (cAMP HTRF, CHO-K1 cells stably expressing hGIPR, hGIP stimulation at about EC80). The experiment is classed as cell-based. The following applies: geometric mean, hGIP at estimated EC80, examples marked ^2: overall geometric mean of multiple forms (including salts) tested. In short, it runs like this: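 CHO-K1 cells expressing hGIPR (2,000 per well) in HBSS/HEPES/0.1% BSA with 200 μM IBMX were preincubated 2 h at 37 °C with an 11-point compound series (0.5% DMSO). hGIP at about EC80 was then added for 30 min, and cAMP was read by HTRF (665/620 nm). Data were normalized between hGIP alone and full antagonism by a reference antagonist at 80 μM.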
Broadly, the IC50 is the midpoint of a concentration-inhibition curve. In the case of `O=C(O)c1ccc(-c2ccc(NC(=O)[C@H]3CCCN3C(=O)Nc3ccc(C(F)(F)F)c(Cl)c3)cc2)cn1` [Example 55, 5-{4-[(1-{[3-chloro-4-(trifluoromethyl)phenyl]carbamoyl}-D-prolyl)amino]phenyl}pyridine-2-carboxylic acid], the 50% inhibitory concentration (IC50) is 0.0076 µM.

`CC(C)c1ccc(NC(=O)N2CCC[C@@H]2C(=O)Nc2ccc(-c3ccc(C(=O)O)cc3F)cc2)cc1` [Example 56, 2-fluoro-4′-[(1-{[4-(propan-2-yl)phenyl]carbamoyl}-D-prolyl)amino][1,1′-biphenyl]-4-carboxylic acid]: the IC50 was 0.0063 µM.

On to `Cc1cc(C(=O)O)ncc1-c1ccc(NC(=O)[C@H]2CCCN2C(=O)Nc2ccc(C(C)C)cc2)cc1` [Example 57, 4-methyl-5-{4-[(1-{[4-(propan-2-yl)phenyl]carbamoyl}-D-prolyl)amino]phenyl}pyridine-2-carboxylic acid], for which the 50% inhibitory concentration (IC50) is 0.065 µM.

Regarding `Cc1cc(-c2ccc(NC(=O)[C@H]3CCCN3C(=O)Nc3ccc(C(C)C)cc3)cc2)cnc1C(=O)O` [Example 58, 3-methyl-5-{4-[(1-{[4-(propan-2-yl)phenyl]carbamoyl}-D-prolyl)amino]phenyl}pyridine-2-carboxylic acid], the IC50 was 0.05 µM.

Take `O=C(O)c1ccc(-c2ccc(NC(=O)[C@H]3CCCN3C(=O)Nc3cc(Cl)cc(Cl)c3)cc2)cc1` [Example 59, 4′-({1-[(3,5-dichlorophenyl)carbamoyl]-D-prolyl}amino)[1,1′-biphenyl]-4-carboxylic acid]: the IC50 was 0.035 µM.

On to `Cc1cc(C(=O)O)ccc1-c1ccc(NC(=O)[C@H]2CCCN2C(=O)Nc2ccc(C(C)C)cc2)cn1` [Example 60, 3-methyl-4-{5-[(1-{[4-(propan-2-yl)phenyl]carbamoyl}-D-prolyl)amino]pyridin-2-yl}benzoic acid], for which the IC50 was 0.021 µM.

`CC(C)c1ccc(NC(=O)N2CCC[C@@H]2C(=O)Nc2ccc(-c3ccc(C(=O)O)cc3)cc2)nc1` [Example 61, 4′-[(1-{[5-(propan-2-yl)pyridin-2-yl]carbamoyl}-D-prolyl)amino][1,1′-biphenyl]-4-carboxylic acid]: the 50% inhibitory concentration (IC50) was 0.15 µM.

As for `CC(C)c1ccc(NC(=O)N2CCC[C@@H]2C(=O)Nc2ccc(-c3ccc(C(=O)O)cc3)cc2)cn1` [Example 62, 4′-[(1-{[6-(propan-2-yl)pyridin-3-yl]carbamoyl}-D-prolyl)amino][1,1′-biphenyl]-4-carboxylic acid], the IC50 was 0.11 µM.

As to `O=C(O)c1ccc(-c2ccc(NC(=O)[C@H]3CCCN3C(=O)Nc3ccc(Br)cc3)cc2)cc1` [Example 63, 4′-({1-[(4-bromophenyl)carbamoyl]-D-prolyl}amino)[1,1′-biphenyl]-4-carboxylic acid], the IC50 is 0.0062 µM.

For `CC(C)c1ccc(NC(=O)N2CCC[C@@H]2C(=O)Nc2ccc(-c3ccc(C(=O)O)cc3)cc2)cc1F` [Example 64, 4′-[(1-{[3-fluoro-4-(propan-2-yl)phenyl]carbamoyl}-D-prolyl)amino][1,1′-biphenyl]-4-carboxylic acid], the IC50 was 0.0029 µM.

Turning to `CC(C)c1ccc(NC(=O)N2CCC[C@@H]2C(=O)Nc2ccc(-c3ccc(C(=O)O)nc3)cc2F)cc1` [Example 65, 5-{3-fluoro-4-[(1-{[4-(propan-2-yl)phenyl]carbamoyl}-D-prolyl)amino]phenyl}pyridine-2-carboxylic acid], the half-maximal inhibitory concentration (IC50) was 0.013 µM.

Turning to `CC(C)c1ccc(NC(=O)N2CCC[C@@H]2C(=O)Nc2ccc(-c3cccc(O)c3F)cc2)cc1` [Example 66, (2R)-N^2-(2′-fluoro-3′-hydroxy[1,1′-biphenyl]-4-yl)-N^1-[4-(propan-2-yl)phenyl]pyrrolidine-1,2-dicarboxamide], the 50% inhibitory concentration (IC50) was 0.39 µM.

Consider `Cc1cc(C(=O)O)cc(C)c1-c1ccc(NC(=O)[C@H]2CCCN2C(=O)Nc2ccc(C(C)C)cc2)cc1` [Example 67, 2,6-dimethyl-4′-[(1-{[4-(propan-2-yl)phenyl]carbamoyl}-D-prolyl)amino][1,1′-biphenyl]-4-carboxylic acid], for which the concentration for half-maximal inhibition (IC50) is 0.014 µM.

Turning to `CC(C)c1ccc(NC(=O)N2CCC[C@@H]2C(=O)Nc2ccc(-c3ccc(C(=O)O)c(C(F)(F)F)c3)cc2)cc1` [Example 68, 4′-[(1-{[4-(propan-2-yl)phenyl]carbamoyl}-D-prolyl)amino]-3-(trifluoromethyl)[1,1′-biphenyl]-4-carboxylic acid], the IC50 was 0.038 µM.

In the case of `Cc1cc(-c2ccc(NC(=O)[C@H]3CCCN3C(=O)Nc3ccc(C(C)C)cc3)cc2)cc(F)c1C(=O)O` [Example 69, 3-fluoro-5-methyl-4′-[(1-{[4-(propan-2-yl)phenyl]carbamoyl}-D-prolyl)amino][1,1′-biphenyl]-4-carboxylic acid], the half-inhibitory concentration (IC50) was 0.047 µM.

With `CC(C)c1ccc(NC(=O)N2CCC[C@@H]2C(=O)Nc2ccc(-c3cc(F)c(C(=O)O)cc3Cl)cc2)cc1` [Example 70, 2-chloro-5-fluoro-4′-[(1-{[4-(propan-2-yl)phenyl]carbamoyl}-D-prolyl)amino][1,1′-biphenyl]-4-carboxylic acid], the IC50 is 0.049 µM.

Take `CC(C)c1ccc(NC(=O)N2CCC[C@@H]2C(=O)Nc2ccc(-c3ccc(C(=O)O)cc3C(C)C)cc2)cc1` [Example 71, 2-(propan-2-yl)-4′-[(1-{[4-(propan-2-yl)phenyl]carbamoyl}-D-prolyl)amino][1,1′-biphenyl]-4-carboxylic acid]: the half-maximal inhibitory concentration (IC50) was 0.0025 µM.

In the case of `O=C(O)c1ccc(-c2ccc(NC(=O)[C@H]3CCCN3C(=O)Nc3ccc(C(F)(F)F)nc3)cc2)cc1` [Example 72, 4′-[(1-{[6-(trifluoromethyl)pyridin-3-yl]carbamoyl}-D-prolyl)amino][1,1′-biphenyl]-4-carboxylic acid], the concentration for half-maximal inhibition (IC50) is 0.069 µM.

As to `O=C(O)c1ccc(-c2ccc(NC(=O)[C@H]3CCCN3C(=O)Nc3ccc(Cl)c(Cl)c3)cc2)cc1` [Example 73, 4′-({1-[(3,4-dichlorophenyl)carbamoyl]-D-prolyl}amino)[1,1′-biphenyl]-4-carboxylic acid], the 50% inhibitory concentration (IC50) is 0.012 µM.

Regarding `O=C(O)c1ccc(-c2ccc(NC(=O)[C@H]3CCCN3C(=O)Nc3cccc(Cl)c3)cc2)cc1` [Example 74, 4′-({1-[(3-chlorophenyl)carbamoyl]-D-prolyl}amino)[1,1′-biphenyl]-4-carboxylic acid], the 50% inhibitory concentration (IC50) is 0.082 µM.

With `CC(C)c1ccc(NC(=O)N2CCC[C@@H]2C(=O)Nc2ccc(-c3cccc(C(=O)O)n3)c(F)c2)cc1` [Example 75, 6-{2-fluoro-4-[(1-{[4-(propan-2-yl)phenyl]carbamoyl}-D-prolyl)amino]phenyl}pyridine-2-carboxylic acid], the IC50 was 0.14 µM.

On to `Cc1cc(NC(=O)[C@H]2CCCN2C(=O)Nc2ccc(C(C)C)cc2)ccc1-c1ccc(C(=O)O)cc1` [Example 76, 2′-methyl-4′-[(1-{[4-(propan-2-yl)phenyl]carbamoyl}-D-prolyl)amino][1,1′-biphenyl]-4-carboxylic acid], for which the IC50 was 0.0099 µM.

For the compound `CC(C)c1ccc(NC(=O)N2CCC[C@@H]2C(=O)Nc2ccc(-c3cccc(C(=O)O)c3)cn2)cc1` [Example 77, 3-{6-[(1-{[4-(propan-2-yl)phenyl]carbamoyl}-D-prolyl)amino]pyridin-3-yl}benzoic acid], the IC50 is 0.016 µM.

With `CC(C)c1ccc(NC(=O)N2CCC[C@@H]2C(=O)Nc2ccc(-c3cccc(C(=O)O)c3)nc2)cc1` [Example 78, 3-{5-[(1-{[4-(propan-2-yl)phenyl]carbamoyl}-D-prolyl)amino]pyridin-2-yl}benzoic acid], the IC50 was 0.145 µM.

Regarding `CC(C)c1ccc(NC(=O)N2CCC[C@@H]2C(=O)Nc2ccc(-c3ccc(C(=O)O)cc3Cl)cc2)cc1` [Example 79, 2-chloro-4′-[(1-{[4-(propan-2-yl)phenyl]carbamoyl}-D-prolyl)amino][1,1′-biphenyl]-4-carboxylic acid], the IC50 is 0.015 µM.

With `CC(C)c1ccc(NC(=O)N2CCC[C@@H]2C(=O)Nc2ccc(-c3c(F)ccc(C(=O)O)c3F)cc2)cc1` [Example 80, 2,6-difluoro-4′-[(1-{[4-(propan-2-yl)phenyl]carbamoyl}-D-prolyl)amino][1,1′-biphenyl]-3-carboxylic acid], the IC50 is 0.4 µM.

For `COc1cc(C(=O)O)c(F)cc1-c1ccc(NC(=O)[C@H]2CCCN2C(=O)Nc2ccc(C(C)C)cc2)cc1` [Example 81, 5-fluoro-2-methoxy-4′-[(1-{[4-(propan-2-yl)phenyl]carbamoyl}-D-prolyl)amino][1,1′-biphenyl]-4-carboxylic acid], the half-maximal inhibitory concentration (IC50) is 0.21 µM.

In the case of `CC(C)c1ccc(NC(=O)N2CCC[C@@H]2C(=O)Nc2ccc(-c3cc(F)c(C(=O)O)cc3F)cc2)cc1` [Example 82, 2,5-difluoro-4′-[(1-{[4-(propan-2-yl)phenyl]carbamoyl}-D-prolyl)amino][1,1′-biphenyl]-4-carboxylic acid], the IC50 was 0.027 µM.

Consider `CC(C)c1ccc(NC(=O)N2CCC[C@@H]2C(=O)Nc2ccc(-c3cc(F)c(C(=O)O)c(Cl)c3)cc2)cc1` [Example 83, 3-chloro-5-fluoro-4′-[(1-{[4-(propan-2-yl)phenyl]carbamoyl}-D-prolyl)amino][1,1′-biphenyl]-4-carboxylic acid], for which the half-maximal inhibitory concentration (IC50) is 0.23 µM.

The record behind these values is US20240366598A1, “GLUCOSE-DEPENDENT INSULINOTROPIC POLYPEPTIDE RECEPTOR ANTAGONISTS AND USES THEREOF” (Pfizer Inc., priority 2023, published 2024).
